Earlier results, collected in patent US20090074668A1, “Vldlr-/- mouse models and related methods” (priority 2007, published 2009).

Test system: VEGF
Settings: intraocular administration; in vitro and in vivo

In the case of CC1(C)O[C@@H]2C[C@H]3[C@@H]4CCC5=CC(=O)C=C[C@]5(C)[C@@]4(F)[C@@H](O)C[C@]3(C)[C@]2(C(=O)CO)O1 [Kenalog], the “effect on VEGF levels” value is listed as “reduce VEGF levels”.
